# Molecular target: T1, Bma-GAR-3 (Brugia malayi, UniProt A0A4E9FL79)
# T1 construct: full-length synthesized ORF; transgenic C. elegans gar-3(gk305) knockout, expressed in ASH neuron (sra-6p), body wall muscle (myo-3p) or pharynx (myo-2p)
# Assay: ring aversion assay, transgenic C. elegans expressing receptor in ASH neuron
# Details: agonist; 100 mM in plate ring; whole transgenic worms, gar-3(gk305) knockout background; N2 and knockout as controls; also pharyngeal pumping and dye-uptake assays
# T1 sequence (A0A4E9FL79 entry or part of it): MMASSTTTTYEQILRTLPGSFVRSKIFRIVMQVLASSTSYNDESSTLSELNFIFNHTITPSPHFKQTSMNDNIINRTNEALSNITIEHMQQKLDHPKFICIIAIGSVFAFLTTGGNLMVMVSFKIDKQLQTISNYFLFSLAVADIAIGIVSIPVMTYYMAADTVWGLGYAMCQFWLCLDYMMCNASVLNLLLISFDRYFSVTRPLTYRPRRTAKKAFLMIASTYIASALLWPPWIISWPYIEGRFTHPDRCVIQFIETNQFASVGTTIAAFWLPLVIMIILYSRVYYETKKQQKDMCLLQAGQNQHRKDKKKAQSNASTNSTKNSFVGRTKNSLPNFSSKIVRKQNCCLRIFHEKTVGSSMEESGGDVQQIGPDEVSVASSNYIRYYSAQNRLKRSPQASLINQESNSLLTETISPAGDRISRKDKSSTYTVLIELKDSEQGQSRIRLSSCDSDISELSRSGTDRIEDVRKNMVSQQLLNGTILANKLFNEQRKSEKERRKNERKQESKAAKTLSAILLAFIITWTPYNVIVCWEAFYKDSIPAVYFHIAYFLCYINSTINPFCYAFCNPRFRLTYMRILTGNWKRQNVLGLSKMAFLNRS
structure (smiles),measurement,value
"C[N+](C)(C)CC#CCN1CCCC1=O [OXO, oxotremorine M]","ring aversion assay, transgenic C. elegans expressing receptor in ASH neuron",this receptor is activated by acetylcholine and oxotremorine M

# From PMC9872666, “Pharmacological Profiling of a Brugia malayi Muscarinic Acetylcholine Receptor as a Putative Antiparasitic Target” (Antimicrobial Agents and Chemotherapy, 2023)
